Results published in BigSolDB 2.1.

Cl.OC(CCCN1CCCCC1)(c1ccccc1)c1ccccc1
solubility (mole fraction)
Details	278.15 K	283.15 K	288.15 K	293.15 K	298.15 K	303.15 K	308.15 K	313.15 K	318.15 K	323.15 K
in DMAc	0.00189	0.00221	0.00254	0.00305	0.00357	0.00407	0.00457	0.00525	0.00596	0.00697
in DMF	0.00285	0.00316	0.00357	0.00408	0.00466	0.00515	0.00615	0.00688	0.00811	0.00923
in DMSO	–	–	–	0.0121	0.0134	0.0148	0.0167	0.019	0.0213	0.0242
in NMP	0.00427	0.00492	0.0056	0.00616	0.00725	0.00826	0.00921	0.0104	0.012	0.0141
in acetic acid	–	–	–	0.00434	0.00601	0.00965	0.016	0.0263	0.0428	0.0632
in acetonitrile	0.000127	0.00016	0.000224	0.000306	0.000412	0.000497	0.000623	0.000747	0.000892	0.00105
in ethanol	0.00161	0.00196	0.00227	0.00275	0.00336	0.00405	0.00485	0.00585	0.00706	0.00867
in methanol	0.00929	0.0109	0.0127	0.0152	0.0177	0.0207	0.0245	0.0285	0.0337	0.0397
in n-butanol	0.000548	0.000685	0.000907	0.00113	0.00137	0.00169	0.00206	0.00247	0.00304	0.00398
in n-pentanol	0.000228	0.000359	0.000562	0.00075	0.000981	0.00121	0.00164	0.00212	0.00265	0.00327
in n-propanol	0.00115	0.00151	0.00199	0.0025	0.00255	0.00309	0.00364	0.00454	0.00575	0.00708
in water	0.000935	0.001	0.00112	0.00125	0.00135	0.0015	0.00165	0.00173	0.00193	0.00216
